This is an account of results in patent US12427140B2, “4-[5-[(rac)-1-[5-(3-chlorophenyl)-3-isoxazolyl]ethoxy]-4-methyl-4H-1,2,4-triazol-3-yl]pyridine for use in prevention and/or treatment of pain in an animal” (priority 2019, dated 2025).

For series [1] the following is noted: cited from earlier work.
The nature of series [2]: Adverse effect on kidneys. Particulars: in vivo.
Series [3] is described as follows: Dissolution of TT001 in I.V. formulation vehicle. The format is physicochemical. As to conditions: 0.1 to 10 mg/ml in 40% w/v HPβCD solution in water for injection; a couple of hours for complete dissolution. On the procedure:
Formulation Method for the Preparation of TT001 for I.V. Dosing, 0.1 to 10 mg/ml
The formulation method is applicable at concentrations in formulation between 0.1 and 10 mg/mL corresponding to 0.262 and 26.2 μmol/mL
Preparation of 40% w/v HPβCD solution in water for injection
Excipients Hydroxypropyl-β-cyclodextrin, Kleptose, Roquette (HPβCD) 400 mg (40% w/v)
Water for injection to 1 ml (1.13 g)
Preparation of TT001 I.V. formulations between 0.1 and 10 mg/ml
Vehicle (40% w/v HPβCD solution in water for injection) to 1 ml (1.13 g)

Series [4] deals with pain in dogs with chronic osteoarthritis. As to conditions: cited from earlier work.

For `C[C@@H](Oc1nnc(-c2ccncc2)n1C)c1cc(-c2cccc(Cl)c2)on1` [TT001, 4-[5-[(1R)-1-[5-(3-Chlorophenyl)-3-isoxazolyl]ethoxy]-4-methyl-4H-1,2,4-triazol-3-yl]pyridine], the “effect on TLESR/reflux” value in series [1] (high dose of 13 mg (about 0.19 mg/kg), 2 to 3 hours after food-intake) is reported as “some effect”. In series [1] (high doses of 13 mg), the side effects result is reported as “Some serious side effects”. Also, in series [1] (prior to food intake and at 1-2 hours after food intake), the effect on reflux entry is recorded as “no significant effect”. Further, the “adverse effect on kidneys” value in series [2] is reported as “not shown any adverse effect on kidneys”. In series [3], the dissolution entry is on record as “moderate”.

Consider `COc1cccc(C2(O)CCCCC2CN(C)C)c1` (stereo not drawn) [Tramadol], for which the “pain killer effect in dogs” value in series [4] is recorded as “do not occur”.
